This note sets out measurements from US12551499B2 (Atea Pharmaceuticals, Inc., priority 2020, dated 2026).

For data set [1], the system named is human airway epithelial (HAE) cells. As to the kind of experiment: Cytotoxicity in dNHBE / HAE cells by visual inspection. The following applies: visual toxicity, Table 11.
Data set [2] relates to human bronchial epithelial cells. Kind of data set: Triphosphate formation in human bronchial epithelial cells. As to conditions: human nasal and bronchial epithelial cells, up to 100 μM.
The test system of a further data set is RD cells. The following applies: human.
The subject of data set [3] is human airway epithelial (HAE) cells.
A further data set has as its system Huh7 cells. As to the kind of experiment: Visual cytotoxicity in uninfected Huh7 cells. The class given is cell-based, human. The procedure:
(§1) Huh7 cells were seeded in 96-well plates at a concentration that yielded 80-100% confluent monolayers in each well after overnight incubation. Compound 1A was dissolved in DMSO to 10 mg/mL and 8 half-log serial dilutions in test medium (modified Eagle's medium containing 5% fetal bovine serum and […] gentamicin) were prepared with the highest concentration of 50 μg/mL. 100 μL of each concentration were added to 5 test wells on the 96-well plate and 3 wells were infected with test virus in test medium (≤100 CCID50 per well). An equivalent amount of test medium was added to the remaining test wells to assess toxicity to uninfected cells. Six wells were infected to serve as untreated virus controls. Media only was added to 6 wells to serve as cell controls. Plates were incubated at 37° C. in a humidified 5% CO2 atmosphere until cytopathic effect (CPE) was observed microscopically.

A short description of data set [4]: Plasma PK in non-human primates after oral Compound 2A. As to conditions: monkey plasma, oral Compound 2A 60 mg/kg then 30 mg/kg every 12 h, steady state.
A further data set relates to MERS-CoV (EMC). In kind it is cell-based. As to conditions: MERS-CoV versus other CoVs.
The subject of another data set is SARS-CoV-2 (WA1). As to the kind of experiment: Virus yield reduction assay, SARS-CoV-2 in dNHBE / HAE cells. In kind it is cell-based. The protocol:
The antiviral activity of Compound 1A was next evaluated against SARS-CoV-2 (WA1) using differentiated normal human bronchial epithelial (dNHBE; HAE (human airway epithelial) cells made to order by MatTek Corporation (Ashland, MA).
Cell Culture: dNHBE cells were grown on 6 mm mesh disks and arrived in kits with either 12- or 24-well transwell inserts. During transportation the tissues were stabilized on a sheet of agarose, which was removed upon receipt. One insert was estimated to consist of approximately 1.2×10^6 cells. Kits of cell inserts (EpiAirway™ AIR-100, AIR-112) originated from a single donor, #9831, a healthy, non-smoking person. The cells have unique properties in forming layers, the apical side of which is exposed only to air and that creates a mucin layer. Upon arrival, the cell transwell inserts were immediately transferred to individual wells of a 6-well plate according to manufacturer's instructions, and 1 mL of MatTek's proprietary culture medium (AIR-100-MM) was added to the basolateral side, whereas the apical side was exposed to a humidified 5% CO2 environment. Cells were cultured at 37° C. for one day before the start of the experiment. After the 24 hour equilibration period, the mucin layer, secreted from the apical side of the cells, was removed by washing with 400 μL pre-warmed 30 mM HEPES buffered saline solution 3×. Culture medium was replenished following the wash steps.
Viruses: Virus was diluted in AIR-100-MM medium before infection, yielding a multiplicity of infection (MOI) of approximately 0.0015 CCID50 per cell.
The cells were maintained at the air-liquid interface.
Determination of virus titers from each treated cell culture: Vero 76 cells were seeded in 96-well plates and grown overnight (37° C.) to confluence. Samples containing virus were diluted in 10-fold increments in infection medium and 200 μL of each dilution transferred into respective wells of a 96-well microtiter plate. Four microwells were used for each dilution to determine 50% viral endpoints. After 5 days of incubation, each well was scored positive for virus if any cytopathic effect (CPE) was observed as compared with the uninfected control and counts were confirmed for endpoint on days 6 and 7. […] The day 5 values were reported. Untreated, uninfected cells were used as the cell controls.
The antiviral activities of test compounds were evaluated against SARS-CoV-2 (USA-WA1/2020) using made to order human airway epithelial (HAE) cells.
Cell Culture: HAE cells were grown on 6 mm mesh disks and arrived in kits with either 12- or 24-well transwell inserts. During transportation the tissues were stabilized on a sheet of agarose, which was removed upon receipt. One insert was estimated to consist of approximately 1.2×10^6 cells. Kits of cell inserts (EpiAirway™ AIR-100 or AIR-112) originated from a single donor, #9831, a healthy, non-smoking person. The cells form polarized monolayers, the apical side of which is exposed to air and creates a mucin layer. Upon arrival, the cell transwell inserts were immediately transferred to individual wells of a 6-well plate according to the manufacturer's instructions, and 1 mL of MatTek's proprietary culture medium (AIR-100-MM) was added to the basolateral side, whereas the apical side was exposed to a humidified 5% CO2 environment. Cells were cultured at 37° C. in a humidified atmosphere containing 5% CO2 for one day before the start of the experiment. After the 24-h equilibration period, the mucin layer, secreted from the apical side of the cells, was removed by washing with 400 μL pre-warmed 30 mM HEPES buffered saline solution 3×. Culture medium was replenished following the wash steps.
Viruses: Virus was diluted in AIR-100-MM medium before infection to yield a MOI when added to cultures of approximately 0.0015 CCID50 per cell.
Select compounds of the present invention were tested in a SARS-CoV-2 assay. […]

Data set [5] has as its system human coronavirus alpha-229E. Kind of data set: Visual CPE assay, coronavirus alpha-229E in Huh7 cells. The class given is cell-based. As to conditions: Huh-7. The procedure: as §1
Data set [6] deals with human bronchial epithelial cells. The following applies: 10 μM.
A further data set in a line: in vivo. As to conditions: male, cynomolgus monkey, Mean Intracellular Compound 1-6 Concentration.
For data set [7], the system named is human nasal epithelial cells. As to conditions: 10 μM.
For data set [8] the following is noted: male, cynomolgus monkey, in vivo, 12 h.

pEC50: −log10 of the molar value. Where “and” joins values, the source holds several entries; their conditions need not be identical. Identical values can stand only once. Like-named read-outs stand apart in the source and are kept apart here.

In the case of `CCC(CC)COC(=O)[C@H](C)N[P@](=O)(OC[C@H]1O[C@@](C#N)(c2ccc3c(N)ncnn23)[C@H](O)[C@@H]1O)Oc1ccccc1` [Remdesivir], the “VYR Assay CC50” value in data set [1] is listed as “no visual tox no visual tox no visual tox no visual tox”.
Broadly, the CC50 is the concentration that lowers cell viability or growth by half. The Cmax is the maximum level reached in the sampled fluid or tissue. As a reminder, the Tmax is the time at which the peak concentration occurs. As usually defined, the EC90 is the concentration needed for an effect of 90%. One may read the pEC50 as the EC50 on a negative log10 scale, so that one unit is a factor of ten. Consider `CNc1nc(N)nc2c1ncn2[C@@H]1O[C@H](CO[P@@](=O)(N[C@@H](C)C(=O)OC(C)C)Oc2ccccc2)[C@@H](O)[C@@]1(C)F` [Compound 1A], for which the toxicity entry in [2] was “no toxicity was observed”. Further, the CC50 in the data set on RD cells is over 86 µM; with Huh-7 cells (human) it was over 50 µM; in the data set with Huh7 cells (Alpha-229E row), over 50 µM; with Huh7 cells (Beta-OC43 row), over 50 µM. The cytotoxicity result with Huh-7 cells was “No cytotoxicity was detected”. In addition, the “VYR Assay CC50” value in data set [3] is “no visual tox no visual tox no visual tox”. In addition, the AUC0-12 h in data set [4] is 0.44 µM·h. The same compound yielded a Cmax in data set [4] of 640 nM. In data set [4], the T1/2 turned out to be 44.4 min. Also, the Tmax in data set [4] is 30 to 60 min. For the same compound, the “difference of activity between MERS-CoV and other CoVs” value in the data set with MERS-CoV (EMC) came out at 30 fold. In addition, in the data set on SARS-CoV-2 (WA1) (SARS-CoV-2 (WA1) in dNHBE, single replicates), the “replicate EC90 determinations” value worked out at 0.41 µg/mL. The EC90 is 0.46 µM and 0.52 µM in the data set with SARS-CoV-2 (WA1) (SARS-CoV-2 in HAE (dNHBE) cells, Table 11, read-out: VYR Assay EC90); 0.7 µM and 0.42 µM in the data set with SARS-CoV-2 (WA1) (SARS-CoV-2 in HAE, footnotes f, g, h of Table 5, read-out: EC90, single replicates); 0.63 µM in the data set on SARS-CoV-2 (WA1) (Severe acute respiratory syndrome coronavirus 2, HAE, SARS-CoV-2 in HAE (dNHBE) cells, Table 11, read-out: VYR Assay EC90). This compound gave a pEC50 in [5] of 6.00.
With `C[C@@]1(F)[C@H](O)[C@@H](COP(=O)(O)OP(=O)(O)OP(=O)(O)O)O[C@H]1n1cnc2c(=O)[nH]c(N)nc21` [Compound 1-6], the “Mean Intracellular Compound 1-6 Concentration” value in data set [6] (0 h) stood at 698 µM; in data set [6] (15 h), 560 µM; in data set [6] (24 h), 462 µM; in data set [6] (48 h) it was 290 µM; in data set [6] (72 h) it was 217 µM; in data set [7] (0 h) it was 236 µM. Besides, the “Mean Intracellular Compound 1-6 Concentration” value in data set [7] (15 h) turned out to be 204 µM; in data set [7] (24 h), 170 µM; in data set [7] (48 h) it was 107 µM; in data set [7] (72 h), 73.8 µM; in data set [8] it was 0.089 µM. The compound also had a concentration at 24 h in the data set “in vivo” of 32 nM.
